# Assay results as given in patent US6737383B1, “Herbicidal oxadiazolidines” (priority 1999, dated 2004).
# Experiments:
# wild oat = assay: Test B pre/postemergence wild oat; type: in vivo, Avena fatua
# How it was run: (§1)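 Response is a visual 0-to-10 score relative to untreated plants, where 0 means no effect and 10 means complete control, taken twelve to sixteen days after application. Treatments went onto soil at planting and onto foliage of 1- to 4-leaf plants, using a surfactant-containing non-phytotoxic solvent.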
# wheat = assay: Test B pre/postemergence wheat; type: in vivo, Triticum aestivum
# How it was run: as §1
# cocklebur = assay: Test B pre/postemergence cocklebur; type: in vivo, Xanthium strumarium
# How it was run: as §1
# morningglory = assay: Test B pre/postemergence morningglory; type: in vivo, Ipomoea hederacea
# How it was run: as §1
# sugar beet = assay: Test B pre/postemergence sugar beet; type: in vivo, Beta vulgaris
# How it was run: as §1
# bedstraw = assay: Test B pre/postemergence bedstraw; type: in vivo, Galium aparine
# How it was run: as §1
# pigweed = assay: Test B pre/postemergence pigweed; type: in vivo, Amaranthus retroflexus
# How it was run: as §1
# corn = assay: Test B pre/postemergence corn; type: in vivo, Zea mays
# How it was run: as §1
# purple nutsedge = assay: Test B pre/postemergence purple nutsedge; type: in vivo, Cyperus rotundus
# How it was run: as §1
# crabgrass = assay: Test B pre/postemergence crabgrass; type: in vivo, Digitaria sanguinalis
# How it was run: as §1
# soybean = assay: Test B pre/postemergence soybean; type: in vivo, Glycine max
# How it was run: as §1
# giant foxtail = assay: Test B pre/postemergence giant foxtail; type: in vivo, Setaria faberii
# How it was run: as §1
# rape = assay: Test B pre/postemergence rape; type: in vivo, Brassica napus
# How it was run: as §1
# blackgrass = assay: Test B pre/postemergence blackgrass; type: in vivo, Alopecurus myosuroides
# How it was run: as §1
# velvetleaf = assay: Test B pre/postemergence velvetleaf; type: in vivo, Abutilon theophrasti
# How it was run: as §1
# surinam grass = assay: Test B pre/postemergence surinam grass; type: in vivo, Brachiaria decumbens
# How it was run: as §1
# [1] = Postemergence, Rate 62 g/ha, scale of 0 to 10, 0 is no effect, 10 is complete control
# [2] = Postemergence, Rate 125 g/ha, scale 0 to 10, 0 is no effect, 10 is complete control
# [3] = Postemergence, Rate 500 g/ha, scale 0 to 10, 0 is no effect, 10 is complete control
# [4] = Preemergence, Rate 62 g/ha, scale of 0 to 10 where 0 is no effect and 10 is complete control
# [5] = Preemergence, Rate 125 g/ha, scale 0 to 10, 0 is no effect, 10 is complete control
# [6] = Preemergence, Rate 500 g/ha, scale of 0 to 10 where 0 is no effect and 10 is complete control
# [7] = Postemergence, Rate 250 g/ha, scale 0 to 10
# [8] = Preemergence, Rate 250 g/ha, scale 0 to 10, 0 is no effect, 10 is complete control
# [9] = Preemergence, Rate 500 g/ha, scale 0 to 10, 0 is no effect, 10 is complete control
# [10] = Postemergence, Rate 250 g/ha, scale 0 to 10, 0 no effect, 10 complete control
smiles,measurement,setting,value
CC(=O)OCCCCn1c(=O)on(C(=O)N(c2ccc(F)cc2F)C(C)C)c1=O [Compound 506],Wild oats plant response rating,wild oat; [1],0
same,Wild oats plant response rating,wild oat; [2],0
same,"Plant response rating, Wild oats",wild oat; [3],2
same,"Plant response rating, Wild oats",wild oat; [4],0
same,Wild oats plant response rating,wild oat; [5],2
same,Wild oats plant response rating,wild oat; [6],7
same,Wheat plant response rating,wheat; [1],0
same,Wheat plant response rating,wheat; [2],0
same,"Plant response rating, Wheat",wheat; [3],4
same,"Plant response rating, Wheat",wheat; [4],0
same,Wheat plant response rating,wheat; [5],0
same,Wheat plant response rating,wheat; [6],2
same,Cocklebur plant response rating,cocklebur; [1],0
same,Cocklebur plant response rating,cocklebur; [2],0
same,Cocklebur plant response rating,cocklebur; [7],2
same,"Plant response rating, Cocklebur",cocklebur; [3],6
same,"Plant response rating, Cocklebur",cocklebur; [4],0
same,Cocklebur plant response rating,cocklebur; [5],0
same,Cocklebur plant response rating,cocklebur; [8],0
same,Cocklebur plant response rating,cocklebur; [6],0
same,Morningglory plant response rating,morningglory; [1],0
same,Morningglory plant response rating,morningglory; [2],0
same,"Plant response rating, Morningglory",morningglory; [3],5
same,"Plant response rating, Morningglory",morningglory; [4],0
same,Morningglory plant response rating,morningglory; [5],0
same,Morningglory plant response rating,morningglory; [6],0
same,Sugarbeets plant response rating,sugar beet; [1],2
same,Sugarbeets plant response rating,sugar beet; [2],6
same,"Plant response rating, Sugarbeets",sugar beet; [3],7
same,"Plant response rating, Sugarbeets",sugar beet; [4],0
same,Sugarbeets plant response rating,sugar beet; [5],0
same,Sugarbeets plant response rating,sugar beet; [6],0
same,"Plant response rating, Bedstraw",bedstraw; [3],9
same,"Plant response rating, Bedstraw",bedstraw; [4],0
same,Bedstraw plant response rating,bedstraw; [5],0
same,Bedstraw plant response rating,bedstraw; [8],0
same,Bedstraw plant response rating,bedstraw; [9],4
same,Redroot pigweed plant response rating,pigweed; [1],0
same,Redroot pigweed plant response rating,pigweed; [2],0
same,"Plant response rating, Redroot pigweed",pigweed; [3],0
same,"Plant response rating, Redroot pigweed",pigweed; [4],2
same,Redroot pigweed plant response rating,pigweed; [5],8
same,Redroot pigweed plant response rating,pigweed; [6],10
same,Corn plant response rating,corn; [1],0
same,Corn plant response rating,corn; [2],0
same,Corn plant response rating,corn; [7],0
same,"Plant response rating, Corn",corn; [3],0
same,"Plant response rating, Corn",corn; [4],0
same,Corn plant response rating,corn; [5],0
same,Corn plant response rating,corn; [6],0
same,Nutsedge plant response rating,purple nutsedge; [1],0
same,Nutsedge plant response rating,purple nutsedge; [2],0
same,"Plant response rating, Nutsedge",purple nutsedge; [3],0
same,"Plant response rating, Nutsedge",purple nutsedge; [4],0
same,Nutsedge plant response rating,purple nutsedge; [5],0
same,Nutsedge plant response rating,purple nutsedge; [6],10
same,Crabgrass plant response rating,crabgrass; [1],0
same,Crabgrass plant response rating,crabgrass; [2],3
same,Crabgrass plant response rating,crabgrass; [7],7
same,"Plant response rating, Crabgrass",crabgrass; [3],8
same,"Plant response rating, Crabgrass",crabgrass; [4],0
same,Crabgrass plant response rating,crabgrass; [5],0
same,Crabgrass plant response rating,crabgrass; [6],6
same,Soybean plant response rating,soybean; [1],2
same,Soybean plant response rating,soybean; [2],2
same,"Plant response rating, Soybean",soybean; [3],4
same,"Plant response rating, Soybean",soybean; [4],0
same,Soybean plant response rating,soybean; [5],0
same,Soybean plant response rating,soybean; [6],0
same,Giant foxtail plant response rating,giant foxtail; [1],2
same,"Plant response rating, Giant foxtail",giant foxtail; [3],8
same,"Plant response rating, Giant foxtail",giant foxtail; [4],0
same,Giant foxtail plant response rating,giant foxtail; [5],5
same,Giant foxtail plant response rating,giant foxtail; [6],8
same,Rape plant response rating,rape; [1],0
same,Rape plant response rating,rape; [2],0
same,"Plant response rating, Rape",rape; [3],7
same,"Plant response rating, Rape",rape; [4],0
same,Rape plant response rating,rape; [5],0
same,Rape plant response rating,rape; [6],8
same,Blackgrass plant response rating,blackgrass; [1],0
same,Blackgrass plant response rating,blackgrass; [2],0
same,Blackgrass plant response rating,blackgrass; [7],5
same,"Plant response rating, Blackgrass",blackgrass; [3],6
same,"Plant response rating, Blackgrass",blackgrass; [4],0
same,Blackgrass plant response rating,blackgrass; [5],0
same,Blackgrass plant response rating,blackgrass; [8],4
same,Blackgrass plant response rating,blackgrass; [6],9
same,Velvetleaf plant response rating,velvetleaf; [1],0
same,Velvetleaf plant response rating,velvetleaf; [2],0
same,"Plant response rating, Velvetleaf",velvetleaf; [3],4
same,"Plant response rating, Velvetleaf",velvetleaf; [4],0
same,Velvetleaf plant response rating,velvetleaf; [5],0
same,Velvetleaf plant response rating,velvetleaf; [6],0
same,B. signalgrass plant response rating,surinam grass; [1],0
same,B. signalgrass plant response rating,surinam grass; [2],0
same,B. signalgrass plant response rating,surinam grass; [10],0
same,"Plant response rating, B. signalgrass",surinam grass; [3],0
same,"Plant response rating, B. signalgrass",surinam grass; [4],0
same,B. signalgrass plant response rating,surinam grass; [5],0
same,B. signalgrass plant response rating,surinam grass; [8],0
same,B. signalgrass plant response rating,surinam grass; [9],0
CCN(CC)C(=O)Cn1c(=O)on(C(=O)N(c2ccc(F)cc2F)C(C)C)c1=O [Compound 512],Wild oats plant response rating,wild oat; [1],0
same,Wild oats plant response rating,wild oat; [2],0
same,"Plant response rating, Wild oats",wild oat; [3],1
same,"Plant response rating, Wild oats",wild oat; [4],2
same,Wild oats plant response rating,wild oat; [5],2
same,Wild oats plant response rating,wild oat; [6],10
same,Wheat plant response rating,wheat; [1],0
same,Wheat plant response rating,wheat; [2],0
same,"Plant response rating, Wheat",wheat; [3],2
same,"Plant response rating, Wheat",wheat; [4],0
same,Wheat plant response rating,wheat; [5],2
same,Wheat plant response rating,wheat; [6],6
same,Cocklebur plant response rating,cocklebur; [1],0
same,Cocklebur plant response rating,cocklebur; [2],2
same,Cocklebur plant response rating,cocklebur; [7],3
same,"Plant response rating, Cocklebur",cocklebur; [3],7
same,"Plant response rating, Cocklebur",cocklebur; [4],0
same,Cocklebur plant response rating,cocklebur; [5],0
same,Cocklebur plant response rating,cocklebur; [8],0
same,Cocklebur plant response rating,cocklebur; [6],0
same,Morningglory plant response rating,morningglory; [1],5
same,Morningglory plant response rating,morningglory; [2],5
same,"Plant response rating, Morningglory",morningglory; [3],7
same,"Plant response rating, Morningglory",morningglory; [4],0
same,Morningglory plant response rating,morningglory; [5],0
same,Morningglory plant response rating,morningglory; [6],0
same,Sugarbeets plant response rating,sugar beet; [1],0
same,Sugarbeets plant response rating,sugar beet; [2],0
same,"Plant response rating, Sugarbeets",sugar beet; [3],7
same,"Plant response rating, Sugarbeets",sugar beet; [4],0
same,Sugarbeets plant response rating,sugar beet; [5],0
same,Sugarbeets plant response rating,sugar beet; [6],5
same,Bedstraw plant response rating,bedstraw; [7],7
same,"Plant response rating, Bedstraw",bedstraw; [4],0
same,Bedstraw plant response rating,bedstraw; [5],0
same,Bedstraw plant response rating,bedstraw; [8],0
same,Bedstraw plant response rating,bedstraw; [9],3
same,Redroot pigweed plant response rating,pigweed; [1],1
same,Redroot pigweed plant response rating,pigweed; [2],7
same,"Plant response rating, Redroot pigweed",pigweed; [3],9
same,"Plant response rating, Redroot pigweed",pigweed; [4],3
same,Redroot pigweed plant response rating,pigweed; [5],9
same,Redroot pigweed plant response rating,pigweed; [6],10
same,Corn plant response rating,corn; [1],0
same,Corn plant response rating,corn; [2],0
same,Corn plant response rating,corn; [7],0
same,"Plant response rating, Corn",corn; [3],0
same,"Plant response rating, Corn",corn; [4],0
same,Corn plant response rating,corn; [5],0
same,Corn plant response rating,corn; [6],3
same,Nutsedge plant response rating,purple nutsedge; [1],0
same,"Plant response rating, Nutsedge",purple nutsedge; [4],0
same,Crabgrass plant response rating,crabgrass; [1],2
same,Crabgrass plant response rating,crabgrass; [2],2
same,Crabgrass plant response rating,crabgrass; [7],5
same,"Plant response rating, Crabgrass",crabgrass; [3],9
same,"Plant response rating, Crabgrass",crabgrass; [4],3
same,Crabgrass plant response rating,crabgrass; [5],7
same,Crabgrass plant response rating,crabgrass; [6],9
same,Soybean plant response rating,soybean; [1],4
same,Soybean plant response rating,soybean; [2],4
same,"Plant response rating, Soybean",soybean; [3],7
same,"Plant response rating, Soybean",soybean; [4],0
same,Soybean plant response rating,soybean; [5],0
same,Soybean plant response rating,soybean; [6],0
same,Giant foxtail plant response rating,giant foxtail; [1],2
same,Giant foxtail plant response rating,giant foxtail; [2],3
same,"Plant response rating, Giant foxtail",giant foxtail; [3],8
same,"Plant response rating, Giant foxtail",giant foxtail; [4],5
same,Giant foxtail plant response rating,giant foxtail; [5],9
same,Giant foxtail plant response rating,giant foxtail; [6],10
same,Rape plant response rating,rape; [1],0
same,Rape plant response rating,rape; [2],0
same,"Plant response rating, Rape",rape; [3],0
same,"Plant response rating, Rape",rape; [4],0
same,Rape plant response rating,rape; [5],0
same,Rape plant response rating,rape; [6],5
same,Blackgrass plant response rating,blackgrass; [1],2
same,Blackgrass plant response rating,blackgrass; [2],3
same,Blackgrass plant response rating,blackgrass; [7],6
same,"Plant response rating, Blackgrass",blackgrass; [3],6
same,"Plant response rating, Blackgrass",blackgrass; [4],0
same,Blackgrass plant response rating,blackgrass; [5],2
same,Blackgrass plant response rating,blackgrass; [8],9
same,Blackgrass plant response rating,blackgrass; [6],10
same,Velvetleaf plant response rating,velvetleaf; [1],0
same,Velvetleaf plant response rating,velvetleaf; [2],0
same,"Plant response rating, Velvetleaf",velvetleaf; [3],1
same,"Plant response rating, Velvetleaf",velvetleaf; [4],0
same,Velvetleaf plant response rating,velvetleaf; [5],0
same,Velvetleaf plant response rating,velvetleaf; [6],0
same,B. signalgrass plant response rating,surinam grass; [1],0
same,B. signalgrass plant response rating,surinam grass; [2],1
same,B. signalgrass plant response rating,surinam grass; [10],4
same,"Plant response rating, B. signalgrass",surinam grass; [3],5
same,"Plant response rating, B. signalgrass",surinam grass; [4],3
same,B. signalgrass plant response rating,surinam grass; [5],8
same,B. signalgrass plant response rating,surinam grass; [8],10
same,B. signalgrass plant response rating,surinam grass; [9],10
